# From patent US20210198204A1, “PRODRUGS OF KALLIKREIN INHIBITORS” (BioCryst Pharmaceuticals, Inc., priority 2016, published 2021)
# Assay: Plasma pharmacokinetics of the parent compound after a single oral dose of prodrug
# Format: in vivo
# Conditions: single oral dose 10 mg/kg, fasted male Sprague Dawley rats; plasma analyzed for the parent compound; study duration 8 h
# Protocol: Plasma pharmacokinetics of compounds was determined using three male Sprague Dawley rats following a single oral dose administration. All animals were placed in a rat metabolic cage, isolated, and fasted approximately 15 hours prior to dosing. Identifying markers were placed on each animal. Each animal was weighed prior to dose administration. Animals were administered orally with a solution formulation of test compound either in water or a combination of water/propylene glycol, at a dose of 10 mg/kg. Gavage needles were attached to syringes and filled with appropriate amount of test article to be dosed. Blood samples (approximately 500 μL) were collected from three rats at pre-dose (time 0), 0.5, 1, 2, 4, 8, 12 and 24 hr, respectively, depending on study duration. Samples were collected into labeled micro centrifuge tubes containing (heparin solution) as an anticoagulant. Plasma was immediately harvested from the blood by centrifugation at 14,000 rpm for 3 min at 4° C., and stored below −70° C. until bioanalysis. Individual plasma samples were analyzed for the parent compound, 3-[2-(4-carbamimidoyl-phenylcarbamoyl)-5-methoxy-4-vinyl-phenyl]-6-(cyclopropylmethyl-carbamoyl)-pyridine-2-carboxylic acid. As shown in Table-1, the test compounds yielded varying degrees of exposure to the parent compound. The test compounds generally provided for improved bioavailability of the parent compound as compared to dosing of the parent compound in aqueous solutions.
row,Compound,AUC0-last hour (area under the curve)
1,"C=Cc1cc(C(=O)Nc2ccc(C(=N)NC(=O)OCC)cc2)c(-c2ccc(C(=O)NCC3CC3)nc2C(=O)OCc2oc(=O)oc2C)cc1OC [Compound 34a, (5-methyl-2-oxo-1,3-dioxol-4-yl)methyl 6-((cyclopropylmethyl)carbamoyl)-3-(2-((4-(N-(ethoxycarbonyl)carbamimidoyl)phenyl)carbamoyl)-5-methoxy-4-vinylphenyl)picolinate]","B (B = 1,001-10,000 ng/mL)"
2,"C=Cc1cc(C(=O)Nc2ccc(C(=N)NC(=O)OCCCCCC)cc2)c(-c2ccc(C(=O)NCC3CC3)nc2C(=O)OCc2oc(=O)oc2C)cc1OC [Compound 35a, (5-methyl-2-oxo-1,3-dioxol-4-yl)methyl 6-((cyclopropylmethyl)carbamoyl)-3-(2-((4-(N-((hexyloxy)carbonyl)carbamimidoyl)phenyl)carbamoyl)-5-methoxy-4-vinylphenyl)picolinate]","B (B = 1,001-10,000 ng/mL)"
3,"C=Cc1cc(C(=O)Nc2ccc(C(=N)N)cc2)c(-c2ccc(C(=O)NCC3CC3)nc2C(=O)OCOC(=O)CN)cc1OC.Cl [Compound 37e, (2-aminoacetoxy)methyl 3-(2-((4-carbamimidoylphenyl)carbamoyl)-5-methoxy-4-vinylphenyl)-6-((cyclopropylmethyl)carbamoyl)picolinate Hydrochloride]","B (B = 1,001-10,000 ng/mL)"
4,"C=Cc1cc(C(=O)Nc2ccc(C(=N)NC(=O)OCCCCCC)cc2)c(-c2ccc(C(=O)NCC3CC3)nc2C(=O)OC(C)OC(=O)OC(C)(C)C)cc1OC (stereo not drawn) [Compound 41a, 1-((tert-butoxycarbonyl)oxy)ethyl 6-((cyclopropylmethyl)carbamoyl)-3-(2-((4-(N-((hexyloxy)carbonyl)carbamimidoyl)phenyl)carbamoyl)-5-methoxy-4-vinylphenyl)picolinate]","B (B = 1,001-10,000 ng/mL)"
5,"C=Cc1cc(C(=O)Nc2ccc(C(=N)NC(=O)OCc3oc(=O)oc3C)cc2)c(-c2ccc(C(=O)NCC3CC3)nc2C(=O)O)cc1OC [Compound 44b, 6-((cyclopropylmethyl)carbamoyl)-3-(5-methoxy-2-((4-(N-(((5-methyl-2-oxo-1,3-dioxol-4-yl)methoxy)carbonyl)carbamimidoyl)phenyl)carbamoyl)-4-vinylphenyl)picolinic acid]","A (A = 0-1,000 ng/mL)"
6,"C=Cc1cc(C(=O)Nc2ccc(C(=N)NC(=O)OCCCCCC)cc2)c(-c2ccc(C(=O)NCC3CC3)nc2C(=O)OCOC(=O)CN)cc1OC [Compound 45b, (2-aminoacetoxy)methyl 6-((cyclopropylmethyl)carbamoyl)-3-(2-((4-(N-((hexyloxy)carbonyl)carbamimidoyl)phenyl)carbamoyl)-5-methoxy-4-vinylphenyl)picolinate]","A (A = 0-1,000 ng/mL)"
7,"C=Cc1cc(C(=O)Nc2ccc(C(=N)NC(=O)OC(C)OC(C)=O)cc2)c(-c2ccc(C(=O)NCC3CC3)nc2C(=O)OC(C)OC(=O)OC(C)C)cc1OC (stereo not drawn) [Compound 47a, 1-((isopropoxycarbonyl)oxy)ethyl 3-(2-((4-(N-((1-acetoxyethoxy)carbonyl)carbamimidoyl)phenyl)carbamoyl)-5-methoxy-4-vinylphenyl)-6-((cyclopropylmethyl)carbamoyl) picolinate]","B (B = 1,001-10,000 ng/mL)"
8,"C=Cc1cc(C(=O)Nc2ccc(C(=N)NC(=O)OC(C)OC(C)=O)cc2)c(-c2ccc(C(=O)NCC3CC3)nc2C(=O)OC(C)OC(=O)C(C)C)cc1OC (stereo not drawn) [Compound 48b, 1-(isobutyryloxy)ethyl 3-(2-((4-(N-((1-acetoxyethoxy)carbonyl)carbamimidoyl)phenyl)carbamoyl)-5-methoxy-4-vinylphenyl)-6-((cyclopropylmethyl)carbamoyl)picolinate]","C (C >10,000 ng/mL)"

# Next, values leading:
row,AUC0-last hour (area under the curve),Compound
1,"C (C >10,000 ng/mL)","C=Cc1cc(C(=O)Nc2ccc(C(=N)NC(=O)OCCCCCC)cc2)c(-c2ccc(C(=O)NCC3CC3)nc2C(=O)OC(C)OC(=O)C(C)C)cc1OC (stereo not drawn) [Compound 36b, 1-(isobutyryloxy)ethyl 6-((cyclopropylmethyl)carbamoyl)-3-(2-((4-(N-((hexyloxy)carbonyl)carbamimidoyl)phenyl)carbamoyl)-5-methoxy-4-vinylphenyl)picolinate]"
2,"C (C >10,000 ng/mL)","C=Cc1cc(C(=O)Nc2ccc(C(=N)NC(=O)OCCCCCC)cc2)c(-c2ccc(C(=O)NCC3CC3)nc2C(=O)OC(C)OC(=O)OC(C)C)cc1OC (stereo not drawn) [Compound 39a, 1-((isopropoxycarbonyl)oxy)ethyl 6-((cyclopropylmethyl)carbamoyl)-3-(2-((4-(N-((hexyloxy)carbonyl)carbamimidoyl)phenyl)carbamoyl)-5-methoxy-4-vinylphenyl)picolinate]"
3,"C (C >10,000 ng/mL)","C=Cc1cc(C(=O)Nc2ccc(C(=N)NC(=O)OCC)cc2)c(-c2ccc(C(=O)NCC3CC3)nc2C(=O)OC(C)OC(=O)C(C)C)cc1OC (stereo not drawn) [Compound 42a, 1-(isobutyryloxy)ethyl 6-((cyclopropylmethyl)carbamoyl)-3-(2-((4-(N-(ethoxycarbonyl)carbamimidoyl)phenyl)carbamoyl)-5-methoxy-4-vinylphenyl)picolinate]"
4,"C (C >10,000 ng/mL)","C=Cc1cc(C(=O)Nc2ccc(C(=N)NC(=O)OCC)cc2)c(-c2ccc(C(=O)NCC3CC3)nc2C(=O)OC(C)OC(=O)OC(C)C)cc1OC (stereo not drawn) [Compound 43a, 1-((isopropoxycarbonyl)oxy)ethyl 6-((cyclopropylmethyl)carbamoyl)-3-(2-((4-(N-(ethoxycarbonyl)carbamimidoyl)phenyl)carbamoyl)-5-methoxy-4-vinylphenyl)picolinate]"
5,"B (B = 1,001-10,000 ng/mL)","C=Cc1cc(C(=O)Nc2ccc(C(=N)NC(=O)OC(C)OC(=O)C(C)C)cc2)c(-c2ccc(C(=O)NCC3CC3)nc2C(=O)OC(C)OC(=O)OC(C)C)cc1OC (stereo not drawn) [Compound 49a, 1-((isopropoxycarbonyl)oxy)ethyl 6-((cyclopropylmethyl)carbamoyl)-3-(2-((4-(N-((1-(isobutyryloxy)ethoxy)carbonyl)carbamimidoyl)phenyl)carbamoyl)-5-methoxy-4-vinylphenyl)picolinate]"

# Same assay, conditions: single oral dose 10 mg/kg, fasted male Sprague Dawley rats; plasma analyzed for the parent compound; study duration 12 h
row,AUC0-last hour (area under the curve),Compound
1,"B (B = 1,001-10,000 ng/mL)","C=Cc1cc(C(=O)Nc2ccc(C(=N)NC(=O)OCC)cc2)c(-c2ccc(C(=O)NCC3CC3)nc2C(=O)OCOC(=O)[C@@H](N)C(C)C)cc1OC [Compound 32c, (S)-((2-amino-3-methylbutanoyl)oxy)methyl 6-((cyclopropylmethyl)carbamoyl)-3-(2-((4-(N-(ethoxycarbonyl)carbamimidoyl)phenyl)carbamoyl)-5-methoxy-4-vinylphenyl)picolinate]"
2,"B (B = 1,001-10,000 ng/mL)","C=Cc1cc(C(=O)Nc2ccc(C(=N)NC(=O)OC(C)OC(=O)[C@@H](N)C(C)C)cc2)c(-c2ccc(C(=O)NCC3CC3)nc2C(=O)O)cc1OC (stereo partly drawn) [Compound 33c, 3-(2-((4-(N-((1-(((S)-2-amino-3-methylbutanoyl)oxy)ethoxy)carbonyl)carbamimidoyl)phenyl)carbamoyl)-5-methoxy-4-vinylphenyl)-6-((cyclopropylmethyl)carbamoyl)picolinic acid]"
